Results taken from PubChem BioAssay (NCI).
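Assay format: 96-well plates, 48-hour exposure. TGI: total growth inhibition.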

Experiments:
Test in all cases: NCI anticancer screen, dose series, 48 h
ACHN renal = test system: ACHN renal
COLO 205 colon = test system: COLO 205 colon
SNB-19 CNS = test system: SNB-19 CNS
MALME-3M melanoma = test system: MALME-3M melanoma
SF-539 CNS = test system: SF-539 CNS
DU-145 prostate = test system: DU-145 prostate
SK-OV-3 ovarian = test system: SK-OV-3 ovarian
HCC-2998 colon = test system: HCC-2998 colon
MDA-MB-435 = test system: MDA-MB-435
CAKI-1 renal = test system: CAKI-1 renal

Compound | TGI (ACHN renal) | TGI (COLO 205 colon) | TGI (SNB-19 CNS) | TGI (MALME-3M melanoma) | TGI (SF-539 CNS) | TGI (DU-145 prostate) | TGI (SK-OV-3 ovarian) | TGI (HCC-2998 colon) | TGI (MDA-MB-435) | TGI (CAKI-1 renal)
O=C1CCCc2ccc3c(c21)CC1(Cc2cc4c(cc2C1)CCCC4)C3 | 30 µM | 31.1 µM | 91.7 µM | 35.8 µM | 48.7 µM | > 100 µM | > 100 µM | > 100 µM | 46.7 µM | 
CC(CCC(=O)O)(c1cc(Br)c(O)c(Br)c1)c1cc(Br)c(O)c(Br)c1 | > 100 µM | > 100 µM | > 100 µM | > 100 µM | > 100 µM | > 100 µM | > 100 µM | 86.3 µM | > 100 µM | > 100 µM
N.N.NCCCCN.O=C([O-])CCl.O=C([O-])CCl.O=C([O-])CCl.O=C([O-])CCl.[Pt+4].[Pt+4] | > 50 µM | > 50 µM |  | > 50 µM | > 50 µM |  | > 50 µM | > 50 µM |  | 
NC(=O)c1ncn(C2CCC(CP(=O)(O)O)C2)c1N (centres undefined) | > 100 µM | > 100 µM | > 100 µM | > 100 µM | > 100 µM | > 100 µM | > 100 µM | > 100 µM | > 100 µM | > 100 µM
CN(C)CCNc1ccccn1 | > 100 µM |  | > 100 µM | > 100 µM |  | > 100 µM |  | > 100 µM | > 100 µM | > 100 µM
C=CCn1c(-c2ccc(N=NNc3ccc(-c4n[nH]c(=S)n4CC=C)cc3)cc2)n[nH]c1=S | 5.09 µM | > 100 µM | > 100 µM | > 100 µM |  | 16 µM | 25.3 µM |  | > 100 µM | 19.1 µM
COC(CO[Si](C)(C)N[Si](C)(C)OCC(OC)c1ccccc1)c1ccccc1 (centres undefined) | > 100 µM | > 100 µM | > 100 µM |  |  | > 100 µM | > 100 µM | > 100 µM | > 100 µM | > 100 µM
O=C1N2CCN=C2c2ccccc2C1(O)c1ccccc1 (centres undefined) | > 100 µM | > 100 µM | > 100 µM |  | > 100 µM | > 100 µM |  | > 100 µM | > 100 µM | > 100 µM
Cc1cc2nc(N)n[n+]([O-])c2cc1C | > 100 µM | > 100 µM | > 100 µM | > 100 µM | > 100 µM | > 100 µM | > 100 µM | > 100 µM | > 100 µM | > 100 µM
CC(CC(C)[C@H]1CCC2[C@H]3C(CC[C@@]21C)[C@@]1(C)CCC(O)C[C@H]1C[C@@H]3O)C(=O)O (some centres undefined) | > 100 µM | > 100 µM | > 100 µM | > 100 µM | > 100 µM | > 100 µM |  | > 100 µM | > 100 µM | > 100 µM
COC(=O)c1ccc2c(c1)CC1(C2)Cc2ccc3c(c2C1)CCC3 (centres undefined) | > 100 µM | 32.1 µM | > 100 µM | 60.5 µM | > 100 µM | > 100 µM | 51.8 µM | > 100 µM | 14.3 µM | 
